Five molecules from patent publication US10064848B2, “Pyridic ketone derivatives, method of preparing same, and pharmaceutical application thereof” (Shanghai Hengrui Pharmaceutical Co., Ltd., priority 2013, dated 2018) can be followed below.

Assay [1] has as its target T1, MEK1 (Recombinant Human Protein) (Homo sapiens, UniProt Q02750).
T1 construct: purchased Invitrogen PV3093
As to the kind of experiment: MEK1 kinase inhibition assay (Z'-LYTE Kinase Assay Kit-Ser/Thr 03 Peptide). It counts as biochemical. Particulars: 4 hours at 37° C, read-out: IC50 for inhibiting MEK kinase (MEK1). The method, then:
MEK1 kinase activity was tested in vitro by the following method.
MEK kinase used in the assay: MEK1 (Recombinant Human Protein, Invitrogen, Catalog No. PV3093).
Kit used in the assay: Z′-LYTE™ Kinase Assay Kit-Ser/Thr 03 Peptide (Invitrogen, Catalog No. PV3176).
The following in vitro assay was used to determine the activity of the compounds of the present invention for inhibiting the […] MEK kinase. The test compound was dissolved in dimethyl sulfoxide to the desired concentration. 1× Buffer A (Invitrogen, Catalog No. PV3189) was prepared, ATP was diluted with 1× Buffer A to obtain 400 μM ATP solution, appropriate amounts of Z′-LYTE™ Ser/Thr 03 Peptide (Invitrogen, Catalog No. PV3200), MEK kinase (MEK1) Enzymes and 1× Buffer A were mixed, and appropriate amounts of Z′-LYTE™ Ser/Thr 03 phosphoPeptide substrate (Invitrogen, Catalog No. PV3215) and 1× Buffer A were formulated into a mixture to be tested. The 4% DMSO solution of the test compound was prepared from 1× buffer and DMSO solution of the test compound. 2.5 μL DMSO solution of the test compound was added to a reaction well, and then 1× Buffer A, 2.5 μL of 400 μM ATP solution, 5 μL of enzyme and substrate mixture were added to become a 10 μL of reaction system. The reaction system was incubated for 4 hours at 37° C., and a mixture was prepared according to Reagent A:Buffer B=1:1024. 5 μL of a mixture of Reagent A (Invitrogen, Catalog No. PV3295) and Buffer B (Invitrogen, Catalog No. P3127) was added to a reaction well, the reaction system was incubated for 60 minutes at 25° C. The fluorescence was read by a NovoStar ELISA with excitation wavelength: 400 nm, and emission wavelength: 445 nm and 520 nm.
The activity of the compounds of the present invention: The above assay was used to determine the biochemical activity of the compounds of the present invention for inhibiting MEK kinase (MEK1).

The target in assay [2] is T2, CYP1A2 (Homo sapiens, UniProt P05177).
T2 construct: from tissue; host or cells: human liver microsomes
T2 sequence (P05177 1-516): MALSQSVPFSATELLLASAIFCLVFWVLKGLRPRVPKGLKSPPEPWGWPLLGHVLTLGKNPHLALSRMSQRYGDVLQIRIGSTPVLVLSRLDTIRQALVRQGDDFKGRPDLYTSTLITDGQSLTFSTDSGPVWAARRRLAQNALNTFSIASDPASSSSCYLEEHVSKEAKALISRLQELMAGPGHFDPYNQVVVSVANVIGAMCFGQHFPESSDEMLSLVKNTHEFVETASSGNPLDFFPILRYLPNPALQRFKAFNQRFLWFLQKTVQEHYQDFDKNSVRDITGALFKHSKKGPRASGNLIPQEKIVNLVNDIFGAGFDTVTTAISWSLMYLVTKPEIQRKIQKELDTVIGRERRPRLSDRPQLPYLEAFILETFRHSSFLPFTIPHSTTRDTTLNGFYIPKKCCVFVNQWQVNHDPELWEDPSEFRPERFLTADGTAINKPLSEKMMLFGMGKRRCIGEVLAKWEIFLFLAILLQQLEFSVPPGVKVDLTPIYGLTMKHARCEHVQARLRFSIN
Description: In vitro CYP enzyme inhibition, human liver microsomes. The assay is classed as in vitro ADME. To be noted: probe Phenacetin, single point method. The method, then: (§1) Human liver microsome incubation system was used to reflect the activity of enzymes based on the amount of metabolites produced. Enzyme inhibition of the test compounds was investigated on CYP1A2, CYP2C9, […], CYP3A4m, CYP3A4t and CYP2C19, and IC50 values (a concentration of the test compound that is required for 50% inhibition of enzyme activity) were measured. […] The appropriate amount of test compound standard sample was weighed, and diluted with DMSO to 50 mM to obtain stock solution I. The stock solution I was diluted with PBS to 100 μM to obtain the reaction liquid which is to be used in incubation. [table] The reaction mixture was prepared: 60 μL [table] The above mixture was preincubated for 5 minutes at 37° C., followed by addition of 40 μL of NADPH (2.5 mM, PBS formulation). The mixture solution was incubated for 20 minutes at 37° C. All incubated samples were set to double samples. 300 μL ice-cold acetonitrile was added to terminate the reaction. The reaction solution was added with 100 μl internal standard, mixed uniformly, and centrifuged for 10 minutes at 3500 rpm. The supernatant was transferred to the LC-MS/MS analysis. The activity of enzymes was reflected by the production amount of metabolites. Using a single point method, the formula was calculated as follows: According to the known literature: IC50>10 μM belongs to weaker inhibition, 1 μM<IC50<10 μM belong to moderate inhibition, IC50<1 μM belong to strong inhibition.

Assay [3] addresses T3, CYP2C19 (Homo sapiens, UniProt P33261).
T3 construct: from tissue; host or cells: human liver microsomes
Described as above. It counts as in vitro ADME. To be noted: probe (S)-Mephenytoin, single point method. The protocol:
as §1

Assay [4] addresses CYP2C6 (Homo sapiens, UniProt P10635). Described as above. Particulars: single point method. The assay is classed as in vitro ADME. The protocol: as §1
In assay [5] the target is T4, CYP2C9 (Homo sapiens, UniProt P11712).
T4 construct: from tissue; host or cells: human liver microsomes
T4 sequence (P11712 whole entry): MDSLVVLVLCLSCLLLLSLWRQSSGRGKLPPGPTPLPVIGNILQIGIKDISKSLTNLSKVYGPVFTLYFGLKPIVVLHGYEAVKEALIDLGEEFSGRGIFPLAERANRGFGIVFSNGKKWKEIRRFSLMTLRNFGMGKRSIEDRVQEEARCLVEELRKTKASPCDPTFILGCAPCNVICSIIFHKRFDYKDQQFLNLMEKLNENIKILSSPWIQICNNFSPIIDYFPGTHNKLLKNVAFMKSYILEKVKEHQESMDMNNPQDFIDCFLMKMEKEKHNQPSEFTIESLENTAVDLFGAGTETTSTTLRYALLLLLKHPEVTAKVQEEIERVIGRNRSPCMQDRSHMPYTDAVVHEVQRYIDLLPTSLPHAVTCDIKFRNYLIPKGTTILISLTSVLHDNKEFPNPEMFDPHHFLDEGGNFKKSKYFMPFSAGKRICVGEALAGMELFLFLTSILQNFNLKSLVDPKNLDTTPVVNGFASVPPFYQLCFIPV
The assay is described as above. It counts as in vitro ADME. Particulars: probe Diclofenac, single point method. The method, then: as §1

Assay [6] concerns the target T5, CYP3A4m (Homo sapiens, UniProt P08684).
T5 construct: from tissue; host or cells: human liver microsomes
Described as above. Particulars: probe Midazolam, single point method. The assay is classed as in vitro ADME. The method, then: as §1

Assay [7] concerns the target T6, CYP3A4t (Homo sapiens, UniProt P08684).
T6 construct: from tissue; host or cells: human liver microsomes
The description is as above. It counts as in vitro ADME. To be noted: probe Testosterone, single point method. The method, then:
as §1

By IC50 is commonly meant the concentration that gives 50% inhibition.

Bounds are passed on as bounds.

Chain of CYP2C6 (P10635 whole entry): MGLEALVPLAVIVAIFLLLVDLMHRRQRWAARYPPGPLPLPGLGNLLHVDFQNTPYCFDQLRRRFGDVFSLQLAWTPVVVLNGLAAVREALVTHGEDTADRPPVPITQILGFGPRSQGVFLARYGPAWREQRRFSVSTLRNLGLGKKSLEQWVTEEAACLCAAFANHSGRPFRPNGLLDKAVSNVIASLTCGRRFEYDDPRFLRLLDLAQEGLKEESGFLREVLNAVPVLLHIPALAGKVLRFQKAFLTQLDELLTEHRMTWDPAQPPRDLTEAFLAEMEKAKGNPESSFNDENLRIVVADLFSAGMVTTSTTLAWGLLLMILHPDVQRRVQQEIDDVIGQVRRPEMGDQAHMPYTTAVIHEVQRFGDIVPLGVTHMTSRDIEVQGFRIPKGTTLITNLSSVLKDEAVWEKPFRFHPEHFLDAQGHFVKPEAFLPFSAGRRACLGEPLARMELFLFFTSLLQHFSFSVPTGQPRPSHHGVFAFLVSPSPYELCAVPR
T1 sequence (Q02750 whole entry): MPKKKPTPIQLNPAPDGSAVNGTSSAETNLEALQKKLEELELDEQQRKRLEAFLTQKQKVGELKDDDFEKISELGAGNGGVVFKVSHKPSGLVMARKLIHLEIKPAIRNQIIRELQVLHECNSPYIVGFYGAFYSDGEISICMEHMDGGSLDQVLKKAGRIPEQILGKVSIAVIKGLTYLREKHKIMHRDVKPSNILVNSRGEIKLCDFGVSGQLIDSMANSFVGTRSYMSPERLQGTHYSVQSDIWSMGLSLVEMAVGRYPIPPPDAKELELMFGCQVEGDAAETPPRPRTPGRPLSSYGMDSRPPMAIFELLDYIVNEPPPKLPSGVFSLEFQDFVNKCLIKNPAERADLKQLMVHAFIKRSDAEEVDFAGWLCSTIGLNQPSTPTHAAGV
T3 sequence (P33261 whole entry): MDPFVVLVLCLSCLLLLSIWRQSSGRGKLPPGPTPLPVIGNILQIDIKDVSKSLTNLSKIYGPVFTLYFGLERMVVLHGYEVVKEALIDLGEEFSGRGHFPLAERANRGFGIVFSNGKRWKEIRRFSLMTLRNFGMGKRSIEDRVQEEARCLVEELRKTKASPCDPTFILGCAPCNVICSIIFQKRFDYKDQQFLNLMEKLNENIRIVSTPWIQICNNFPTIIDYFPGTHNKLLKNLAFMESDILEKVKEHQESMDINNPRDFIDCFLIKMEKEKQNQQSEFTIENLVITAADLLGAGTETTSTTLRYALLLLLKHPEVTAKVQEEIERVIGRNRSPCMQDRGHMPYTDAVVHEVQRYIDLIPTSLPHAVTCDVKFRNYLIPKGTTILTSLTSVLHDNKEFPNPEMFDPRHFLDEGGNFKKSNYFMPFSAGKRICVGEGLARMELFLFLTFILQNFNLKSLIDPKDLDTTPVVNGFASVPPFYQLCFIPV
T6 sequence (P08684 whole entry): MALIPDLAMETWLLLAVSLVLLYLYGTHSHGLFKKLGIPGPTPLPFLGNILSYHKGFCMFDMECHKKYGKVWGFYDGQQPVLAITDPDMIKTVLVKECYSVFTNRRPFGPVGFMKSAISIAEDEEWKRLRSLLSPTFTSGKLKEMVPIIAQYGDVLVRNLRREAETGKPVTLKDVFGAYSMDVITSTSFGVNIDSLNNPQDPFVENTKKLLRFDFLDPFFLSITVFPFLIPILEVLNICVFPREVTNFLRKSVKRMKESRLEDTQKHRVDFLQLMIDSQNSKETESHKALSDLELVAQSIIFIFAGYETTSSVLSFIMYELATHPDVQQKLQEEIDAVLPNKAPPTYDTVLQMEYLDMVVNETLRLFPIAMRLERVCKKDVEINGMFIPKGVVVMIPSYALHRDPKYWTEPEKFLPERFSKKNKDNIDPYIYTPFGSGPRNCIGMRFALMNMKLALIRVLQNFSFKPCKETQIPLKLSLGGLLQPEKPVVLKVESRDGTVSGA
T5 sequence (P08684 whole entry): as above

`CCS(=O)(=O)Nc1cccc(Oc2cc(=O)n(C)c(Nc3ccc(I)cc3F)c2C(N)=O)c1C` [Example 3, 4-(3-(ethylsulfonamido)-2-methylphenoxy)-2-((2-fluoro-4-iodophenyl)amino)-1-methyl-6-oxo-1,6-dihydropyridine-3-carboxamide]: the 50% inhibitory concentration (IC50) in assay [1] was 0.0041 µM; in assay [2] it was > 50 µM; in assay [3], > 10 µM; in assay [4], > 50 µM; in assay [5] it was > 50 µM; in assay [6], > 50 µM. Besides, in assay [7], the IC50 is > 50 µM.

Take `Cc1c(F)cccc1Oc1cc(=O)n(C)c(Nc2ccc(I)cc2F)c1C(N)=O` [Example 1, 4-(3-fluoro-2-methylphenoxy)-2-((2-fluoro-4-iodophenyl)amino)-1-methyl-6-oxo-1,6-dihydropyridine-3-carboxamide]: the IC50 in assay [1] is 0.0047 µM; in assay [2], > 10 µM; in assay [3], > 10 µM; in assay [4], > 10 µM; in assay [5] it was > 10 µM; in assay [6] it was > 10 µM. Moreover, the 50% inhibitory concentration (IC50) in assay [7] is > 10 µM.

As to `Cc1cc(F)ccc1Oc1cc(=O)n(C)c(Nc2ccc(I)cc2F)c1C(N)=O` [Example 22, 4-(4-fluoro-2-methylphenoxy)-2-((2-fluoro-4-iodophenyl)amino)-1-methyl-6-oxo-1,6-dihydropyridine-3-carboxamide], the IC50 is 0.0043 µM in assay [1]; > 10 µM in assay [2]; > 10 µM in assay [3]; > 10 µM in assay [4]; > 10 µM in assay [5]; > 10 µM in assay [6]. Besides, the IC50 in assay [7] was > 10 µM.

Take `Cc1ncccc1Oc1cc(=O)n(C)c(Nc2ccc(I)cc2F)c1C(N)=O` [Example 29, 2-((2-fluoro-4-iodophenyl)amino)-1-methyl-4-((2-methylpyridin-3-yl)oxy)-6-oxo-1,6-dihydropyridine-3-carboxamide]: the IC50 in assay [1] is 0.0036 µM; in assay [2], > 10 µM; in assay [3] it was > 10 µM; in assay [4], > 10 µM; in assay [5], > 10 µM; in assay [6] it was > 10 µM. Further, in assay [7], the IC50 was > 10 µM.

On to `Cc1ccc(Oc2cc(=O)n(C)c(Nc3ccc(I)cc3F)c2C(N)=O)cn1` [Example 31, 2-((2-fluoro-4-iodophenyl)amino)-1-methyl-4-((6-methylpyridin-3-yl)oxy)-6-oxo-1,6-dihydropyridine-3-carboxamide], for which the IC50 in assay [1] is 0.0039 µM; in assay [2], > 10 µM; in assay [3], > 10 µM; in assay [4] it was > 10 µM; in assay [5] it was > 10 µM; in assay [6] it was > 10 µM. In addition, in assay [7], the half-inhibitory concentration (IC50) is > 10 µM.
